pEC50: −log10 of the molar value.
Tested on: Human Pan T cells
Experiment: IL-2 Release Detection Assay
Format: cell-based
Conditions: T-cell, IL-2 in supernatant by ELISA, anti-CD3 pre-coated plate, 24 hours
Method: Add dilutions of compounds into the cells and incubate at 37° C. &5% CO2 for 24 hours. IL-2 in cell supernatant was detected by ELISA Kit (R&D, DY202). […] Top and Bottom: Plateaus in same units as Y. Log EC50: same log units as X. Activation fold: Top activation/DMSO control. Activation % at 100 nM: Activation of non-linear regression equation curve at the concentration of 100 nM/DMSO control*100%.

| Structure (SMILES) | pEC50 |
| --- | --- |
| Cc1ccc2oc(C3CCN(c4cc(=O)n(C)c5ccc(C#N)nc45)CC3)nc2c1 [Example 1, 5-methyl-8-(4-(5-methylbenzo[d]oxazol-2-yl)piperidin-1-yl)-6-oxo-5,6-dihydro-1,5-naphthyridine-2-carbonitrile] | 6.34 |
| Cc1ccc2oc(C3CCN(c4cc(=O)n(C)c5ccc(Cl)cc45)CC3)nc2c1 [Example 2, 6-chloro-1-methyl-4-(4-(5-methylbenzo[d]oxazol-2-yl)piperidin-1-yl)quinolin-2(1H)-one] | 6.49 |
| Cc1ccc2oc(C3CCN(c4cc(=O)n(C)c5ccc(C#N)cc45)CC3)nc2c1 [Example 3, 1-methyl-4-(4-(5-methylbenzo[d]oxazol-2-yl)piperidin-1-yl)-2-oxo-1,2-dihydroquinoline-6-carbonitrile] | 6.76 |
| Cc1ccc2oc(C3CCN(c4nc(=O)n(C)c5ccc(Cl)cc45)CC3)nc2c1 [Example 4, 6-chloro-1-methyl-4-(4-(5-methylbenzo[d]oxazol-2-yl)piperidin-1-yl)quinazolin-2(1H)-one] | 6.70 |
| Cc1ccc2oc(C3CCN(c4c(C#N)c(=O)n(C)c5ccc(Cl)nc45)CC3)nc2c1 [Example 9, 6-chloro-1-methyl-4-(4-(5-methylbenzo[d]oxazol-2-yl)piperidin-1-yl)-2-oxo-1,2-dihydro-1,5-naphthyridine-3-carbonitrile] | 6.32 |
| Cc1ccc2oc(C3CCN(c4cc(=O)n(C)c5ccc(Cl)nc45)CC3)nc2c1 [Example 10, 6-chloro-1-methyl-4-(4-(5-methylbenzo[d]oxazol-2-yl)piperidin-1-yl)-1,5-naphthyridin-2(1H)-one] | 5.90 |
| Cn1c(=O)cc(N2CCC(c3nc4cc(F)ccc4o3)CC2)c2nc(Cl)ccc21 [Example 11, 6-chloro-4-(4-(5-fluorobenzo[d]oxazol-2-yl)piperidin-1-yl)-1-methyl-1,5-naphthyridin-2(1H)-one] | 6.08 |
| Cn1c(=O)cc(N2CCC(c3nc4cc(F)ccc4o3)CC2)c2nc(C#N)ccc21 [Example 12, 8-(4-(5-fluorobenzo[d]oxazol-2-yl)piperidin-1-yl)-5-methyl-6-oxo-5,6-dihydro-1,5-naphthyridine-2-carbonitrile] | 6.58 |
| COCCOc1cc2c(nc1Cl)c(N1CCC(c3nc4cc(C)ccc4o3)CC1)cc(=O)n2C [Example 15, 6-chloro-7-(2-methoxyethoxy)-1-methyl-4-(4-(5-methylbenzo[d]oxazol-2-yl)piperidin-1-yl)-1,5-naphthyridin-2(1H)-one] | 6.02 |
| COCCOc1cc2c(nc1C#N)c(N1CCC(c3nc4cc(C)ccc4o3)CC1)cc(=O)n2C [Example 16, 3-(2-methoxyethoxy)-5-methyl-8-(4-(5-methylbenzo[d]oxazol-2-yl)piperidin-1-yl)-6-oxo-5,6-dihydro-1,5-naphthyridine-2-carbonitrile] | 6.46 |
| Cc1ccc2oc(C3CCN(c4cc(=O)n(C)c5cc(NCCO)c(Cl)nc45)CC3)nc2c1 [Example 17, 6-chloro-7-((2-hydroxyethyl)amino)-1-methyl-4-(4-(5-methylbenzo[d]oxazol-2-yl)piperidin-1-yl)-1,5-naphthyridin-2(1H)-one] | 5.92 |
| Cc1ccc2oc(C3CCN(c4cc(=O)n(C)c5cc(NCCO)c(C#N)nc45)CC3)nc2c1 [Example 18, 3-((2-hydroxyethyl)amino)-5-methyl-8-(4-(5-methylbenzo[d]oxazol-2-yl)piperidin-1-yl)-6-oxo-5,6-dihydro-1,5-naphthyridine-2-carbonitrile] | 6.91 |
| Cc1ccc2oc(C3CCN(c4cc(=O)n(C)c5cc(OC6CCOC6)c(C#N)nc45)CC3)nc2c1 (stereo not drawn) [Example 21, 5-methyl-8-(4-(5-methylbenzo[d]oxazol-2-yl)piperidin-1-yl)-6-oxo-3-((tetrahydrofuran-3-yl)oxy)-5,6-dihydro-1,5-naphthyridine-2-carbonitrile] | 6.88 |
| Cc1ccc2oc(C3CCN(c4cc(=O)n(C)c5cc(OCCO)c(C#N)nc45)CC3)nc2c1 [Example 23, 3-(2-hydroxyethoxy)-5-methyl-8-(4-(5-methylbenzo[d]oxazol-2-yl)piperidin-1-yl)-6-oxo-5,6-dihydro-1,5-naphthyridine-2-carbonitrile] | 6.53 |
| Cc1ccc2oc(C3CCN(c4cc(=O)n(C)c5cc(OCCCO)c(C#N)nc45)CC3)nc2c1 [Example 24, 3-(3-hydroxypropoxy)-5-methyl-8-(4-(5-methylbenzo[d]oxazol-2-yl)piperidin-1-yl)-6-oxo-5,6-dihydro-1,5-naphthyridine-2-carbonitrile] | 6.29 |
| Cc1ccc2oc(C3CCN(c4cc(=O)n(C)c5cc(O[C@H]6CCOC6)c(C#N)nc45)CC3)nc2c1 [Example 29, (S)-5-methyl-8-(4-(5-methylbenzo[d]oxazol-2-yl)piperidin-1-yl)-6-oxo-3-((tetrahydrofuran-3-yl)oxy)-5,6-dihydro-1,5-naphthyridine-2-carbonitrile] | 6.35 |
| Cc1ccc2oc(N3CC=C(c4cc(=O)n(C)c5cc(OCCO)c(C#N)nc45)CC3)nc2c1 [Example 30, 3-(2-hydroxyethoxy)-5-methyl-8-(1-(5-methylbenzo[d]oxazol-2-yl)-1,2,3,6-tetrahydropyridin-4-yl)-6-oxo-5,6-dihydro-1,5-naphthyridine-2-carbonitrile] | 6.17 |

Tested on: not listed separately
Experiment: Pharmacokinetic Profile Evaluation (mouse PK)
Format: in vivo, CD-1 mice
Conditions: CD-1, plasma, oral administration at 5 mg/kg, read-out: AUC00~∞
Method: Species and strain: CD-1 mice of SPF. Source: Sino-British SIPPR/BK Lab Animal Ltd, Shanghai. 3 mice were intravenously administrated with given compounds (Formulation: 5% DMSO+10% Solutol+85% Saline) or orally gavage administrated with given compounds (Formulation: 5% DMSO+10% Solutol+85% Saline). The blood samples were taken via cephalic vein at timepoints 0.083 h, 0.25 h, 0.5 h, 1 h, 2 h, 4 h, 8 h and 24 h after intravenous administration or at timepoints 0.25 h, 0.5 h, 1 h, 2 h, 4 h, 6 h, 8 h and 24 h after oral gavage administration, 30 μL/time point. Blood samples were placed in tubes containing K2-EDTA and stored on ice until centrifuged. The blood samples were centrifuged at 6800 g for 6 minutes at 2-8° C. within 1 h after collected and stored frozen at approximately −80° C. An aliquot of 10 μL plasma samples were protein precipitated with 200 μL MeOH in which contains 10 ng/mL Verapamil (IS). The mixture was vortexed for 1 min and centrifuged at 18000 g for 7 min. Transfer 180 μL supernatant to 96 well plates. An aliquot of 6 μL supernatant was injected for LC-MS/MS analysis by LC-MS/MS-04 (API4000) instrument. The analytical results were confirmed using quality control samples for intra-assay variation. The accuracy of >66.7% of the quality control samples should be between 80-120% of the known value(s). Standard set of parameters including Area Under the Curve (AUC(0-t) and AUC(0-∞)), elimination half-live (T1/2), maximum plasma concentration (Cmax), will be calculated using noncompartmental analysis modules in FDA certified pharmacokinetic program Phoenix WinNonlin 7.0 (Pharsight, USA).

| Structure (SMILES) | AUC [ng·h/mL] |
| --- | --- |
| Cc1ccc2oc(C3CCN(c4cc(=O)n(C)c5ccc(C#N)nc45)CC3)nc2c1 [Example 1, 5-methyl-8-(4-(5-methylbenzo[d]oxazol-2-yl)piperidin-1-yl)-6-oxo-5,6-dihydro-1,5-naphthyridine-2-carbonitrile] | 6150 |
| Cn1c(=O)cc(N2CCC(c3nc4cc(F)ccc4o3)CC2)c2nc(C#N)ccc21 [Example 12, 8-(4-(5-fluorobenzo[d]oxazol-2-yl)piperidin-1-yl)-5-methyl-6-oxo-5,6-dihydro-1,5-naphthyridine-2-carbonitrile] | 5940 |
| Cc1ccc2oc(C3CCN(c4cc(=O)n(C)c5cc(OCCO)c(C#N)nc45)CC3)nc2c1 [Example 23, 3-(2-hydroxyethoxy)-5-methyl-8-(4-(5-methylbenzo[d]oxazol-2-yl)piperidin-1-yl)-6-oxo-5,6-dihydro-1,5-naphthyridine-2-carbonitrile] | 12100 |
| Cc1ccc2oc(C3CCN(c4cc(=O)n(C)c5cc(O[C@@H]6CCOC6)c(C#N)nc45)CC3)nc2c1 [Example 28, (R)-5-methyl-8-(4-(5-methylbenzo[d]oxazol-2-yl)piperidin-1-yl)-6-oxo-3-((tetrahydrofuran-3-yl)oxy)-5,6-dihydro-1,5-naphthyridine-2-carbonitrile] | 3460 |
